Measurements reported in patent US4959368A, “Therapeutic agent for neurological diseases” (Mitsui Petrochemical Industries Ltd., priority 1986, dated 1990).
Where two headings read alike, the source gives them in different places.

Columns and labels:
Acute toxicity, mouse = format: in vivo; details: in vivo, po, read-out: Presumed LD50
Experimental: (§1) The acute toxicity of the compounds of the invention was examined by the following method.
(§2) Male ddy-strain 5-week old mice and male Wistar-strain 8 week old rats, five per group, were used as experimental animals. Each of the compounds was dissolved in saline and administered perorally, and the toxicity of the compound was assessed 24 hours after the administration.

mice = assay: Acute toxicity, mouse; format: in vivo; details: 24 hours
Experimental: as §1, §2

[1] = system: mouse neuroblastoma cell line neuro-2a; assay: Activity on neuro-2a, cells with outgrown neurites; format: cell-based
In short: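 Mouse neuro-2a cells in DMEM with FCS exposed to compounds for 24 h (up to 6 concentrations, triplicate runs), glutaraldehyde-fixed and methylene blue-stained. Proportion of cells bearing a neurite at least twice the cell's long diameter counted microscopically over ≥200 cells.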

[2] = Table 3 Run No. 7, 0.5 mM, control 2.5 ± 0.7
[3] = Table 3 Run No. 2, 0.1 mM, control 1.9 ± 0.9

Structure (SMILES)	LD50 at 24 h (Acute toxicity, mouse; Table 6, p.o.) [mg/kg]	Number of dead animals/number of test animals (mice; Table 6, 300 mg/kg p.o.)	Number of dead animals/number of test animals (mice; Table 6, 500 mg/kg p.o.)	Number of dead animals/number of test animals (mice; Table 6, 1000 mg/kg p.o.)	Cells having neurites with a length at least twice the long diameter of cell/total number of cells [1, 2] [%]	LD50 at 24 h (Acute toxicity, mouse; Table 7, p.o.) [mg/kg]	Cells having neurites with a length at least twice the long diameter of cell/total number of cells [1, 3] [%]	other results
O=c1[nH]ccc2nc(N3CCNCC3)ncc12 [Compound 701]	300 to 550	0/5	3/5	5/5	42.5 ± 1.8			Cells having neurites with a length at least twice the long diameter of cell/total number of cells ([1]; Table 3 Run No. 7, 0.03 mM, control 2.5 ± 0.7): 6.8 ± 0.8%; Cells having neurites with a length at least twice the long diameter of cell/total number of cells ([1]; Table 3 Run No. 7, 1 mM, control 2.5 ± 0.7): 57.2 ± 1.2%; Cells having neurites with a length at least twice the long diameter of cell/total number of cells ([1]; Table 3 second Run No. 5, 0.1 mM, control 4.5 ± 0.3): 16.2 ± 1.2%
Cc1nc(N2CCNCC2)nc2c1CC(=O)N2C [Compound 468]						> 1000		Number of dead animals/number of test animals (mice; Table 7, 1000 mg/kg p.o.): 1/5; Cells having neurites with a length at least twice the long diameter of cell/total number of cells ([1]; Table 3 Run No. 10, 0.3 mM, control 1.7 ± 0.7): 5.8 ± 0.8%; Cells having neurites with a length at least twice the long diameter of cell/total number of cells ([1]; Table 3 Run No. 10, 1 mM, control 1.7 ± 0.7): 15.7 ± 0.5%
CCOC(=O)c1cnc(N2CCNCC2)nc1N [Compound 120]	550 to 1000	0/5	1/5	4/5			10.2 ± 3.7	Cells having neurites with a length at least twice the long diameter of cell/total number of cells ([1]; Table 3 Run No. 10, 0.003 mM, control 1.7 ± 0.7): 2.6 ± 0.6%; Cells having neurites with a length at least twice the long diameter of cell/total number of cells ([1]; Table 3 Run No. 10, 0.1 mM, control 1.7 ± 0.7): 6.5 ± 1.7%
CCOC(=O)c1cnc(N2CCNCC2)nc1C(=O)OCC [Compound 144]	550 to 1000	0/5	0/5	3/5			9.9 ± 1.5	Cells having neurites with a length at least twice the long diameter of cell/total number of cells ([1]; Table 3 Run No. 2, 0.3 mM, control 1.9 ± 0.9): 19.4 ± 3.2%
CN1C(=O)Cc2cnc(N3CCNCC3)nc21 [Compound 406]					40.2 ± 3.4	> 1000		Number of dead animals/number of test animals (mice; Table 7, 1000 mg/kg p.o., 1000 mg/kg): 1/5; Cells having neurites with a length at least twice the long diameter of cell/total number of cells ([1]; Table 3 Run No. 4, 0.1 mM, control 3.1 ± 0.2): 16.2 ± 3.7%; Cells having neurites with a length at least twice the long diameter of cell/total number of cells ([1]; Table 3 Run No. 4, 0.3 mM, control 3.1 ± 0.2): 29.9 ± 2.6%; Cells having neurites with a length at least twice the long diameter of cell/total number of cells ([1]; Table 3 Run No. 4, 0.5 mM, control 3.1 ± 0.2): 44.8 ± 0.8%; Cells having neurites with a length at least twice the long diameter of cell/total number of cells ([1]; Table 3 Run No. 7, 0.1 mM, control 2.5 ± 0.7): 10.3 ± 1.6%; Cells having neurites with a length at least twice the long diameter of cell/total number of cells ([1]; Table 3 Run No. 7, 0.3 mM, control 2.5 ± 0.7): 22.6 ± 2.2%; Cells having neurites with a length at least twice the long diameter of cell/total number of cells ([1]; Table 3 second Run No. 5, 0.03 mM, control 4.5 ± 0.3): 7.6 ± 1.8%; Cells having neurites with a length at least twice the long diameter of cell/total number of cells ([1]; Table 3 second Run No. 5, 0.3 mM, control 4.5 ± 0.3): 18.4 ± 3.0%; Cells having neurites with a length at least twice the long diameter of cell/total number of cells ([1]; Table 3 second Run No. 5, 0.5 mM, control 4.5 ± 0.3): 32.4 ± 4.3%
